This is an account of results in US20240246942A1, “KINASE INHIBITORS FOR THE TREATMENT OF NEURODEGENERATIVE DISEASES” (priority 2020, published 2024).

Molecules are shown by their SMILES.

What all share (assay): biochemical
Assay [1] has as its target T1, panel of 374 wild-type kinases (Homo sapiens, UniProt Q13976).
T1 construct: purchased Reaction Biology Corporation
T1 sequence (Q13976 1-671): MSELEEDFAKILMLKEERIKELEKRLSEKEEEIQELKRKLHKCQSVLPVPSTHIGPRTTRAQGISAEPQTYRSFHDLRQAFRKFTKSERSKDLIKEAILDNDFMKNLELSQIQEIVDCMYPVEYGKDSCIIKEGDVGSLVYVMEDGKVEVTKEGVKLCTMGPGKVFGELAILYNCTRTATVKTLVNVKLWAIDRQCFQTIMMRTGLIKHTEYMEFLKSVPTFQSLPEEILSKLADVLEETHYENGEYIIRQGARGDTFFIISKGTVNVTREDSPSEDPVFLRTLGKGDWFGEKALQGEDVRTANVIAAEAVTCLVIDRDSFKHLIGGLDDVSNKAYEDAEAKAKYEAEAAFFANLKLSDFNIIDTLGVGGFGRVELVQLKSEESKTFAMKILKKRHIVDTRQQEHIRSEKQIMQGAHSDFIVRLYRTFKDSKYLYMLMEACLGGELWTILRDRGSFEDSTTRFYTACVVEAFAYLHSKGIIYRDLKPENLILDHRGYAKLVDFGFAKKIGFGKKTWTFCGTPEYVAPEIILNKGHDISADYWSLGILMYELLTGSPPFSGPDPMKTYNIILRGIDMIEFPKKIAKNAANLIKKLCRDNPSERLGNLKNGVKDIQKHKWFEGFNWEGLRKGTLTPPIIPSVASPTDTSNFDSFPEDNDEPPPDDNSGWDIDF
Particulars: read-out: % Enzyme Activity (relative to DMSO controls), kinase PKG1a.

Assay [2] has as its target T2, panel of 374 wild-type kinases (Homo sapiens, UniProt Q02763).
T2 construct: purchased Reaction Biology Corporation
The following applies: read-out: % Enzyme Activity (relative to DMSO controls), kinase TIE2/TEK.

For assay [3], the target named is T3, panel of 374 wild-type kinases (Homo sapiens, UniProt P21802).
T3 construct: purchased Reaction Biology Corporation
Particulars: read-out: % Enzyme Activity (relative to DMSO controls), FGFR2.

The target of assay [4] is T4, panel of 374 wild-type kinases (Homo sapiens, UniProt Q6P2M8).
T4 construct: purchased Reaction Biology Corporation
T4 sequence (Q6P2M8 whole entry): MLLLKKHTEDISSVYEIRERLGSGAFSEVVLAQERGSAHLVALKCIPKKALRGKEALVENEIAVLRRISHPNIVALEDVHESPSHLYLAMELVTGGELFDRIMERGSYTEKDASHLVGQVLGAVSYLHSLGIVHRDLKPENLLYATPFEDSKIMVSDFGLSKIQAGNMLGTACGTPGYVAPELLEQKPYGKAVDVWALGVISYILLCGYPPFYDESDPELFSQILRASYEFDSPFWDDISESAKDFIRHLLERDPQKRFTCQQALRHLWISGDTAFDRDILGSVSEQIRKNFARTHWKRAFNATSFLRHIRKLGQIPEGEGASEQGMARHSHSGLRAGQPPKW
The following applies: read-out: % Enzyme Activity (relative to DMSO controls), CAMK1b.

Assay [5] addresses T5, panel of 374 wild-type kinases (Homo sapiens, UniProt Q9Y243).
T5 construct: purchased Reaction Biology Corporation
The following applies: read-out: % Enzyme Activity (relative to DMSO controls), AKT3.

The target in assay [6] is T6, panel of 374 wild-type kinases (Homo sapiens, UniProt Q86V86).
T6 construct: purchased Reaction Biology Corporation
The following applies: read-out: % Enzyme Activity (relative to DMSO controls), kinase PIM3.

Assay [7] deals with T7, panel of 374 wild-type kinases (Homo sapiens, UniProt Q7L7X3).
T7 construct: purchased Reaction Biology Corporation
T7 sequence (Q7L7X3 1-1001): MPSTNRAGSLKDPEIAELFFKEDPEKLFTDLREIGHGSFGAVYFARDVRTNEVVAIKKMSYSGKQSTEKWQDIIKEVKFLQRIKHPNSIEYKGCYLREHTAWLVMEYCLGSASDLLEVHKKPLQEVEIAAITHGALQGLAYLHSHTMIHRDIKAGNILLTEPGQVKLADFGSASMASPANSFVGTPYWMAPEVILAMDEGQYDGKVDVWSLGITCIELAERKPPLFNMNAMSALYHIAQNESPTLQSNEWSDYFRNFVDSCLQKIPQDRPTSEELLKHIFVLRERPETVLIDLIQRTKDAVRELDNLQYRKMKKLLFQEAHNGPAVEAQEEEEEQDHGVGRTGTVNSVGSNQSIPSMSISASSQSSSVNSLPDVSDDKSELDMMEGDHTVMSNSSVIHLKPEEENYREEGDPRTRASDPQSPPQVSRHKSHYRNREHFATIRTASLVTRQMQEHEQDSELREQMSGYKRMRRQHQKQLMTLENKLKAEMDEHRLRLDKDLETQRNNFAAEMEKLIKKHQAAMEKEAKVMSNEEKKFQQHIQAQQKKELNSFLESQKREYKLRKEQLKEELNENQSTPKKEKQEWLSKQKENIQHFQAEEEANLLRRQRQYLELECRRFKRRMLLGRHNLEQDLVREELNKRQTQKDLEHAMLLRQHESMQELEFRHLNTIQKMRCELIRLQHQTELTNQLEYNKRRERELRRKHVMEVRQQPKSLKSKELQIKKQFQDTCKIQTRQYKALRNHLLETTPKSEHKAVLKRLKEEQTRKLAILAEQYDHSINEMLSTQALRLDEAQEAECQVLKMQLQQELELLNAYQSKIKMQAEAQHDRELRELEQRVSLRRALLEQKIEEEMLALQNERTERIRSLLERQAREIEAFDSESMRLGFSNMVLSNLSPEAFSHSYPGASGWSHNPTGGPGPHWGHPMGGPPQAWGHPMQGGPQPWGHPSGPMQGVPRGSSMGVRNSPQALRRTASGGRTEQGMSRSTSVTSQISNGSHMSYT
Particulars: read-out: % Enzyme Activity (relative to DMSO controls), kinase TAOK1.

For assay [8], the target named is T8, panel of 374 wild-type kinases (Homo sapiens, UniProt P29317).
T8 construct: purchased Reaction Biology Corporation
Particulars: read-out: % Enzyme Activity (relative to DMSO controls), EPHA2.

In assay [9] the target is T9, panel of 374 wild-type kinases (Homo sapiens, UniProt Q7KZI7).
T9 construct: purchased Reaction Biology Corporation
T9 sequence (Q7KZI7 whole entry): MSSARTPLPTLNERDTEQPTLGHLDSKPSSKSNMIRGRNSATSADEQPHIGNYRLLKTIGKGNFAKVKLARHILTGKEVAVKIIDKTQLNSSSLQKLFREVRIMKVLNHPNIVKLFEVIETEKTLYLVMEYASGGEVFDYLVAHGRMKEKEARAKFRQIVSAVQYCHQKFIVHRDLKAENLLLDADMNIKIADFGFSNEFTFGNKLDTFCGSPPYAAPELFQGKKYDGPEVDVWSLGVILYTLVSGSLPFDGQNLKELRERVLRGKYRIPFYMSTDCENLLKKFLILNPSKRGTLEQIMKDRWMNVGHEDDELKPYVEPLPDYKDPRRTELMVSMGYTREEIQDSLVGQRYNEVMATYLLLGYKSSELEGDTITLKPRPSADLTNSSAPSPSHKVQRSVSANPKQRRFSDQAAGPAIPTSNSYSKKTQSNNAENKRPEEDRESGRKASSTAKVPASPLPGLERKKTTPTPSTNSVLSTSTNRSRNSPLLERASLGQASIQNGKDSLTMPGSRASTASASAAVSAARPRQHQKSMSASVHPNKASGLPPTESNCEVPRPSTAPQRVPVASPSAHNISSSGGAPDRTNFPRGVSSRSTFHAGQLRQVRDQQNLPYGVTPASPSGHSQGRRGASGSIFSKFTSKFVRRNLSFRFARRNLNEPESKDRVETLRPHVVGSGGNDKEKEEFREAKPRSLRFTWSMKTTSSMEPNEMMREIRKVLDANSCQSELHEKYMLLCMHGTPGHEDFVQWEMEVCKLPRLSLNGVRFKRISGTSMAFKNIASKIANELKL
Particulars: read-out: % Enzyme Activity (relative to DMSO controls), MARK2/PAR-1Ba.

Assay [10] deals with T10, panel of 374 wild-type kinases (Homo sapiens, UniProt P23443).
T10 construct: purchased Reaction Biology Corporation
The following applies: read-out: % Enzyme Activity (relative to DMSO controls), kinase p70S6K/RPS6KB1.

For assay [11], the target named is T11, panel of 374 wild-type kinases (Homo sapiens, UniProt Q9H4A3).
T11 construct: purchased Reaction Biology Corporation
T11 sequence (Q9H4A3 whole entry): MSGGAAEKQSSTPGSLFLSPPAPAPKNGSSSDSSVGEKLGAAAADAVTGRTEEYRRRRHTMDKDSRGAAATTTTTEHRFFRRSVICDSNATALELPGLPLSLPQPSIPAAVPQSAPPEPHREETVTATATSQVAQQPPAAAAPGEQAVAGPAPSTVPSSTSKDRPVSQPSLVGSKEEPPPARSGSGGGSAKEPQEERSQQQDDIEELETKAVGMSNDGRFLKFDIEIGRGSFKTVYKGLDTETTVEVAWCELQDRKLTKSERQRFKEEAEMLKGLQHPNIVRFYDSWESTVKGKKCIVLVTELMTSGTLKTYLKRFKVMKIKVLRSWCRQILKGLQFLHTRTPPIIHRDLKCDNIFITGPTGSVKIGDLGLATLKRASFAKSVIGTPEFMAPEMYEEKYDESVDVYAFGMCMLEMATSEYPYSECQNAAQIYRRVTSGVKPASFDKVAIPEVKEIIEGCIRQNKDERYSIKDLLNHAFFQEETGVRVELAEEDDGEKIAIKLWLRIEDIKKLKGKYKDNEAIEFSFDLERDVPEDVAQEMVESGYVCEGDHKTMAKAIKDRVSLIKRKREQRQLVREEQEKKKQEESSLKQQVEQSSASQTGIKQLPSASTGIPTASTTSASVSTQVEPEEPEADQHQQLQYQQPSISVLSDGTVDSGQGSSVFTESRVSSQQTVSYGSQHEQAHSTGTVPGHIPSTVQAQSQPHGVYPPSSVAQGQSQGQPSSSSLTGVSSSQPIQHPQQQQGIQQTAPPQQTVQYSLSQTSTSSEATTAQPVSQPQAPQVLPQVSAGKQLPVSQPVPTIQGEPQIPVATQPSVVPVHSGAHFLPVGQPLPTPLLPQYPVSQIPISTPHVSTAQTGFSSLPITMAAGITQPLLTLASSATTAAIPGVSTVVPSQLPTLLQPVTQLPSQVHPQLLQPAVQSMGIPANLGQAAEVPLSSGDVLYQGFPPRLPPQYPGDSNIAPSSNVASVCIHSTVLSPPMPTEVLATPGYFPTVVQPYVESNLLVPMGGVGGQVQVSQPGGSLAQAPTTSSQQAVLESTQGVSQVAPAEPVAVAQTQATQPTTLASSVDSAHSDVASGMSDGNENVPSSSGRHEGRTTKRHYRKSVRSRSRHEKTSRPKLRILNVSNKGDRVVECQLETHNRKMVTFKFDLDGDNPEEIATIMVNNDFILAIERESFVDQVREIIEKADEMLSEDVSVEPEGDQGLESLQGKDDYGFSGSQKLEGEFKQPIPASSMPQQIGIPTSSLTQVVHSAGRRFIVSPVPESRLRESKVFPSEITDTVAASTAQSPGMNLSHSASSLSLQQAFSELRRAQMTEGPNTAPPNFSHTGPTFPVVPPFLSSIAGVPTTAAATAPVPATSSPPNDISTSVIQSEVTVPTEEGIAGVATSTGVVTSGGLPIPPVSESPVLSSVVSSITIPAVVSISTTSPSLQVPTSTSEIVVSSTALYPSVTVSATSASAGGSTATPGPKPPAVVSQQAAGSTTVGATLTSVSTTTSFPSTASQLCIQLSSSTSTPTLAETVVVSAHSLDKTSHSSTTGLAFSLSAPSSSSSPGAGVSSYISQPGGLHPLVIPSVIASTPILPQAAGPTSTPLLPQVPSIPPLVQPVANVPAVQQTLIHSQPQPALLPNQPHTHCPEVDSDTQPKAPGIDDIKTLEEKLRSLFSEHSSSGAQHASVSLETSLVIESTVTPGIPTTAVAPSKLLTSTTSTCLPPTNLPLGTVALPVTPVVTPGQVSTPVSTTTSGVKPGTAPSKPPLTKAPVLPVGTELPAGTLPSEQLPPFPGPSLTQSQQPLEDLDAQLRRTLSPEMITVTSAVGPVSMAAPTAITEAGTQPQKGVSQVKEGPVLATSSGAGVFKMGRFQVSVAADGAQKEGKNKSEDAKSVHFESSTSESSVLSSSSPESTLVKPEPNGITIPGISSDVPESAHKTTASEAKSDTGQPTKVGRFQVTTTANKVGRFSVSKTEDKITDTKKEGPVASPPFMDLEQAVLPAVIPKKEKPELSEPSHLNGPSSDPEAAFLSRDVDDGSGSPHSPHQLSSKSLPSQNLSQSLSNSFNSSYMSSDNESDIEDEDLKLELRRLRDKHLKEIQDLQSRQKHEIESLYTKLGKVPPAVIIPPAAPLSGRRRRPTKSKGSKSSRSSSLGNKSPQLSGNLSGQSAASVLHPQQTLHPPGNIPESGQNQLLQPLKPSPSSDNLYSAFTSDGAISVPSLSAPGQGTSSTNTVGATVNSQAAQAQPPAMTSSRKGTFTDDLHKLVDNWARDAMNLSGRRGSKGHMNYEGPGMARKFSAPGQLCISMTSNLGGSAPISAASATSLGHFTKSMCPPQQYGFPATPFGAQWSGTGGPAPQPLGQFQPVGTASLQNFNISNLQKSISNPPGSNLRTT
Particulars: read-out: % Enzyme Activity (relative to DMSO controls), kinase WNK1.

In assay [12] the target is T12, panel of 374 wild-type kinases (Homo sapiens, UniProt P43250).
T12 construct: purchased Reaction Biology Corporation
Particulars: read-out: % Enzyme Activity (relative to DMSO controls), GRK6.

T5 sequence (Q9Y243 whole entry): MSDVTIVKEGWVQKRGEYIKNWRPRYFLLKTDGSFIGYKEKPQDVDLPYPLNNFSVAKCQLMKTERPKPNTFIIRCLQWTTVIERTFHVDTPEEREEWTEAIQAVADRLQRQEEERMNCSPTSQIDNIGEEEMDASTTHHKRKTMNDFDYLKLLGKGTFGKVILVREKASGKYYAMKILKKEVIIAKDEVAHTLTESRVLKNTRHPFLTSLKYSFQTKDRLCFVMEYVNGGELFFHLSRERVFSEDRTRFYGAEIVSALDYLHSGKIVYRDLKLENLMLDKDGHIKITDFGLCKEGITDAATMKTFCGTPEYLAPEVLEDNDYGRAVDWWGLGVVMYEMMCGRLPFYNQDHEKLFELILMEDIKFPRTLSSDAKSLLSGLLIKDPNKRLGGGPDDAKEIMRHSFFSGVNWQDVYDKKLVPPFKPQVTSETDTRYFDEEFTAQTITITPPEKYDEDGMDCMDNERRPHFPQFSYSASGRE
T2 sequence (Q02763 23-1124): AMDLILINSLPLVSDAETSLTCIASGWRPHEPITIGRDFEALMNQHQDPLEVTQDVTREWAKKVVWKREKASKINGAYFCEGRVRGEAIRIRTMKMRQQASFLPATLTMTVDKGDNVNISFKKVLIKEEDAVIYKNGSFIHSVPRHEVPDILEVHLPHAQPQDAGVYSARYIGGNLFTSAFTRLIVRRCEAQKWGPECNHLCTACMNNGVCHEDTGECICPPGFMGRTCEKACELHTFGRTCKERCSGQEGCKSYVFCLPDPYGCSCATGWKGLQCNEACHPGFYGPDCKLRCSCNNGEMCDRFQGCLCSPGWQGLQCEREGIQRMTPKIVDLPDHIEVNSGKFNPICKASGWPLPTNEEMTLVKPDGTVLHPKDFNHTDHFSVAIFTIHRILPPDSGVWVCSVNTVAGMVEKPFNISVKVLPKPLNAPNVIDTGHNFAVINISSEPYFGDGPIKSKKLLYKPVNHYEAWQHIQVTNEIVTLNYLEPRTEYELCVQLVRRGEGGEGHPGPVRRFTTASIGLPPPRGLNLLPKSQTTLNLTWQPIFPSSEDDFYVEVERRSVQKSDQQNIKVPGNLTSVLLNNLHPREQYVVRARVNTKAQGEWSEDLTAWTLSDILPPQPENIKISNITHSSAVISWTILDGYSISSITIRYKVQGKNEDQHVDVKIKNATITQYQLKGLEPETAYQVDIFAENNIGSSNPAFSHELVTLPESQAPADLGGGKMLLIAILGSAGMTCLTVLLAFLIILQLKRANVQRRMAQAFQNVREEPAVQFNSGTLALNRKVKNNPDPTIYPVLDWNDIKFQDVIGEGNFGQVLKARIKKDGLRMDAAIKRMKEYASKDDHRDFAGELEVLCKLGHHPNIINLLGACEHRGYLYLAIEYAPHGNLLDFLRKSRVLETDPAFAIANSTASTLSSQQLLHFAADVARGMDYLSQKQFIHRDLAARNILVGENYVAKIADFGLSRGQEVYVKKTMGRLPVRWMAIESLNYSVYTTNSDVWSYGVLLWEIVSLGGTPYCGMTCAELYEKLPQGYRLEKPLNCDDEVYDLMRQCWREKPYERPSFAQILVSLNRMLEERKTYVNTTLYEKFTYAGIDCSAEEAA

On to `Cc1sc(C(=O)NC2COC2)cc1-n1cc(NC(=O)Nc2c(F)cccc2Cl)cn1` [Compound 27, 4-(4-(3-(2-chloro-6-fluorophenyl)ureido)-1H-pyrazol-1-yl)-5-methyl-N-(oxetan-3-yl)thiophene-2-carboxamide], for which the remaining activity at 10 µM in [1] (10 uM) stood at 120%; in [2] (10 uM) it was 86.6%; in assay [3] (10 uM), 106%; in [4] (10 uM), 80.1%; in [5] (10 uM), 94.8%; in assay [6] (10 uM), 129%. The remaining activity at 10 µM amounted to 110% in assay [7] (10 uM); 102% in [8] (10 uM); 99.8% in assay [9] (10 uM); 92.1% in assay [10] (10 uM); 88.9% in [11] (10 uM); 91.5% in [12] (10 uM).

For `O=C(Nc1cnn(-c2csc(C(=O)NC3COC3)c2)c1)Nc1c(F)cccc1Cl` [Compound 25, 4-(4-(3-(2-chloro-6-fluorophenyl)ureido)-1H-pyrazol-1-yl)-N-(oxetan-3-yl)thiophene-2-carboxamide], the remaining activity at 5 µM in [1] stood at 93.2%; in assay [2] it was 105%; in assay [3], 103%; in assay [4] it was 102%; in assay [5] it was 97.6%; in assay [6], 73.9%. The remaining activity at 5 µM in assay [7] came to 90.6%; in [8], 97.9%; in assay [9], 90.7%; in assay [10], 97.7%; in [11] it was 93.3%; in assay [12], 102%.

On to `O=C(Nc1cnn(-c2csc(C(=O)NC3COC3)c2)c1)Nc1ccccc1Cl` [Compound 17, 4-(4-(3-(2-chlorophenyl)ureido)-1H-pyrazol-1-yl)-N-(oxetan-3-yl)thiophene-2-carboxamide], for which the remaining activity at 5 µM in assay [1] came to 110%; in [2], 100%; in assay [3], 95.6%; in [4], 96.3%; in assay [5] it was 87.3%; in [6], 61.2%. Also, the remaining activity at 5 µM in [7] was found to be 122%; in assay [8], 101%; in assay [9], 104%; in assay [10] it was 92.1%; in assay [11], 99.7%; in [12], 97.9%.
